PubChem BioAssay AID385 (SGCOxCompounds, 2006)

Target: Casein kinase I isoform gamma-3 (Homo sapiens) (UniProt Q9Y6M4)
Experiment: ligand binding to human CK1 gamma-3 kinase – biophysical, DSF, SYPRO orange, recombinant protein (AID 385)
Details: recombinant CSNK1G3, DSF thermal shift, at 10 µM, protein 2 µM, buffer 10 mM HEPES, pH 7.5, NaCl 150 mM, stronger effect = higher value

Sequence of Casein kinase I isoform gamma-3 (Homo sapiens) (Q9Y6M4 whole entry, looked up, canonical isoform): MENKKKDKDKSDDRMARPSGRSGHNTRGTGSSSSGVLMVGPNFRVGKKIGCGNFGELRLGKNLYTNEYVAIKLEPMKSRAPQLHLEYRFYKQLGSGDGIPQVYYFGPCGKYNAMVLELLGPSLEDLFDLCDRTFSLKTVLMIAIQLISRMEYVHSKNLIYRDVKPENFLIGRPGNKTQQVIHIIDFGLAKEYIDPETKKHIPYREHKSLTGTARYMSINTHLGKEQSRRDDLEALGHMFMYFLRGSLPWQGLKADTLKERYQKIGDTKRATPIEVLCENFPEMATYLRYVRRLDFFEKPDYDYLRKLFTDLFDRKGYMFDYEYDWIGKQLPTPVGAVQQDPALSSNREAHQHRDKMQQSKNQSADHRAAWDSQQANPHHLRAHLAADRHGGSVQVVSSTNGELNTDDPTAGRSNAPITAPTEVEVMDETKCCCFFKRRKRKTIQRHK

| SMILES | Tm shift [C] |
| --- | --- |
| CSc1nc(-c2ccnc(NC(C)c3ccccc3)c2)c(-c2ccc(F)cc2)[nH]1 (stereo unspecified) | 3.5 |
| Nc1nc(Nc2ccc(F)cc2)sc1C(=O)c1ccccc1 | 3.5 |
| Nc1nc(Nc2cccc(Cl)c2)sc1C(=O)c1ccc(F)cc1 | 4.8 |
| Nc1nc(Nc2ccccc2F)sc1C(=O)c1ccc(Br)cc1 | 3.4 |
| CCN(CC)CCNC(=O)c1c(C)[nH]c(/C=C2\C(=O)Nc3ccc(Cl)cc32)c1C | 4 |
| CC(C)n1cnc2c(Nc3cccc(Cl)c3)nc(NCCO)nc21 | 7 |
| CCn1cnc2c(Nc3cccc(Cl)c3)nc(N[C@@H]3CCCC[C@@H]3N)nc21 | 5.5 |
| COc1ccc(Nc2nc(N)c(C(=O)c3ccc(OC)cc3)s2)cc1 | 4.9 |
| NC1=N/C(=C2/CCNC(=O)c3[nH]c(Br)cc32)C(=O)N1 | 3.5 |
| NC(=O)c1ccc(-c2nc(-c3ccc4c(c3)OCCO4)c(-c3ccccn3)[nH]2)cc1 | 6.7 |
| N#C/C(=C1\Nc2ccccc2S1)c1ccnc(NCCc2cccnc2)n1 | 3.5 |
| O=Nc1c(-c2c(O)[nH]c3ccc(S(O)(O)O)cc23)[nH]c2ccccc12 | 3.8 |
| O=c1[nH]c(O)c2c1c1c3ccccc3nc1n1cncc21 | 3.5 |
| Nc1nc(Nc2ccccc2)sc1C(=O)c1ccc(F)cc1 | 3.3 |
| Nc1nc(Nc2ccc(S(N)(=O)=O)cc2)nn1C(=S)Nc1c(F)cccc1F | 5.4 |
| COc1ccc(Nc2nc(N)c(C(=O)c3ccc(Cl)cc3)s2)cc1 | 3.1 |
